Laboratory results reported in the supplement of paper PMC10307832.

Each cell line was assayed with Cc1cnc(CNC(=O)c2c(=O)c3ccc(N4CCCN(C)CC4)nc3n3c2sc2ccccc23)cn1 [CX-5461] + Cc1nc(NC(=O)N2CCC[C@H]2C(N)=O)sc1-c1ccnc(C(C)(C)C(F)(F)F)c1 [Alpelisib] (partner 2 µM) (assay: relative viability (nuclei count vs DMSO), 5 days (fraction); higher = more cells survive). Settings: first compound 0.01 µM.
In short: (§1)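 Nuclei were stained with Hoechst during a one-step fixation (final 0.05% Triton X-100, 1% formaldehyde, 1 ug/ml Hoechst) carried out 5 days after dosing, then counted on 4× images. The cells, lung cancer lines in 1536-well plates, had been dosed by pin tool the day after seeding with one drug alone or a fixed anchor-drug dose plus five library-drug doses (not always all listed) in √10 steps. Relative viability is the nuclei count in treated wells divided by that in vehicle wells, and each value is the median of duplicate plates.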

Going from NCI-H727 to EBC-1, the relative viability rises from 0.606 to 0.899.

First: NCI-H1703
Second: NCI-H1993
The relative viability of the first is lower: 0.314 for the first, 0.721 for the second.

Compared with SK-LU-1, NCI-H838 is lower in relative viability: 1.08 for the first, 1 for the second.

First: Calu-6
Second: HCC-366
The relative viability of the first is higher: 0.984 for the first, 0.591 for the second.

Compared with IA-LM, A549 is lower in relative viability: 0.873 for the first, 0.771 for the second.

First: HCC-78
Second: NCI-H1299
The relative viability of the first is lower: 0.338 for the first, 1.04 for the second.

First: NCI-H1563
Second: NCI-H2170
The relative viability of the first is higher: 0.903 for the first, 0.766 for the second.

ABC-1 was tested, and the relative viability was 1.12.

Same assay, conditions: first compound 0.03162 µM

Going from NCI-H727 to EBC-1, the relative viability rises from 0.597 to 0.943.

Going from NCI-H1703 to NCI-H1993, the relative viability rises from 0.419 to 0.706.

Compared with SK-LU-1, NCI-H838 is lower in relative viability: 1.35 for the first, 1.05 for the second.

First: Calu-6
Second: HCC-366
The relative viability of the first is higher: 1.15 for the first, 0.529 for the second.

Compared with IA-LM, A549 is lower in relative viability: 0.715 for the first, 0.561 for the second.

First: HCC-78
Second: NCI-H1299
The relative viability of the first is lower: 0.328 for the first, 1.04 for the second.

Compared with NCI-H1563, NCI-H2170 is lower in relative viability: 0.85 for the first, 0.834 for the second.

ABC-1 gave a relative viability of 0.916.

Same assay, conditions: first compound 0.1 µM

Compared with NCI-H727, EBC-1 is higher in relative viability: 0.547 for the first, 0.75 for the second.

First: NCI-H1703
Second: NCI-H1993
The relative viability of the first is lower: 0.28 for the first, 0.667 for the second.

Compared with SK-LU-1, NCI-H838 is higher in relative viability: 0.724 for the first, 1.06 for the second.

Compared with Calu-6, HCC-366 is lower in relative viability: 0.916 for the first, 0.33 for the second.

Compared with IA-LM, HCC-78 is lower in relative viability: 0.593 for the first, 0.348 for the second.

First: NCI-H1299
Second: NCI-H1563
The relative viability of the first is higher: 1.08 for the first, 0.899 for the second.

NCI-H2170 was tested, and the relative viability was 0.889.

Same assay, conditions: first compound 0.3162 µM

First: NCI-H727
Second: EBC-1
The relative viability of the first is lower: 0.611 for the first, 0.775 for the second.

Going from NCI-H1703 to NCI-H1993, the relative viability rises from 0.332 to 0.577.

Going from SK-LU-1 to NCI-H838, the relative viability falls from 0.945 to 0.709.

Compared with Calu-6, HCC-366 is lower in relative viability: 1.07 for the first, 0.507 for the second.

Compared with IA-LM, A549 is lower in relative viability: 0.837 for the first, 0.508 for the second.

Going from HCC-78 to NCI-H1299, the relative viability rises from 0.263 to 1.1.

First: NCI-H1563
Second: NCI-H2170
The relative viability of the first is lower: 0.901 for the first, 0.913 for the second.

ABC-1 gave a relative viability of 1.09.

Same assay, conditions: first compound 1 µM

First: NCI-H727
Second: EBC-1
The relative viability of the first is higher: 0.592 for the first, 0.425 for the second.

First: NCI-H1703
Second: NCI-H1993
The relative viability of the first is lower: 0.267 for the first, 0.605 for the second.

First: SK-LU-1
Second: NCI-H838
The relative viability of the first is lower: 0.332 for the first, 0.896 for the second.

Going from Calu-6 to HCC-366, the relative viability falls from 0.304 to 0.234.

First: IA-LM
Second: A549
The relative viability of the first is higher: 0.316 for the first, 0.0561 for the second.

Going from HCC-78 to NCI-H1299, the relative viability rises from 0.334 to 0.992.

First: NCI-H1563
Second: NCI-H2170
The relative viability of the first is lower: 0.489 for the first, 0.718 for the second.

Cell Line ABC-1 has a relative viability of 0.751.

The cell lines below were run with O=C(Nc1cc(C(F)(F)F)cc(C(F)(F)F)c1)c1cc(Cl)ccc1O [IMD-0354] + CC(=O)Nc1cccc(-n2c(=O)n(C3CC3)c(=O)c3c(Nc4ccc(I)cc4F)n(C)c(=O)c(C)c32)c1 [Trametinib] (partner 0.02 µM) in the same assay as above. Settings: first compound 0.04 µM.
In short: as §1

Going from NCI-H522 to NCI-H727, the relative viability falls from 0.749 to 0.38.

First: NCI-H1650
Second: NCI-H1993
The relative viability of the first is higher: 0.568 for the first, 0.53 for the second.

Going from SK-LU-1 to NCI-H838, the relative viability rises from 0.447 to 0.518.

First: HCC-366
Second: NCI-H2342
The relative viability of the first is lower: 0.479 for the first, 0.763 for the second.

Compared with ChaGo-K-1, SW 900 is lower in relative viability: 0.918 for the first, 0.711 for the second.

Compared with NCI-H1648, HCC-78 is higher in relative viability: 0.435 for the first, 0.765 for the second.

NCI-H2170 gave a relative viability of 1.03.

Same assay, conditions: first compound 0.1265 µM

First: NCI-H522
Second: NCI-H727
The relative viability of the first is higher: 0.778 for the first, 0.323 for the second.

Compared with NCI-H1650, NCI-H1993 is lower in relative viability: 0.558 for the first, 0.353 for the second.

Going from SK-LU-1 to NCI-H838, the relative viability falls from 0.514 to 0.466.

Going from HCC-366 to NCI-H2342, the relative viability rises from 0.404 to 0.743.

Compared with ChaGo-K-1, SW 900 is lower in relative viability: 0.872 for the first, 0.639 for the second.

Compared with NCI-H1648, HCC-78 is higher in relative viability: 0.504 for the first, 0.687 for the second.

Work on NCI-H2170 yielded a relative viability of 0.909.

Same assay, conditions: first compound 0.4 µM

Compared with NCI-H522, NCI-H727 is lower in relative viability: 0.732 for the first, 0.365 for the second.

Compared with NCI-H1650, NCI-H1993 is higher in relative viability: 0.479 for the first, 0.557 for the second.

Compared with SK-LU-1, NCI-H838 is lower in relative viability: 0.41 for the first, 0.236 for the second.

Compared with HCC-366, NCI-H2342 is higher in relative viability: 0.251 for the first, 0.731 for the second.

First: ChaGo-K-1
Second: SW 900
The relative viability of the first is higher: 0.68 for the first, 0.599 for the second.

Going from NCI-H1648 to HCC-78, the relative viability rises from 0.369 to 0.766.

NCI-H2170 showed a relative viability of 0.562.

Same assay, conditions: first compound 1.265 µM

Going from NCI-H522 to NCI-H727, the relative viability falls from 0.6 to 0.351.

Going from NCI-H1650 to NCI-H1993, the relative viability rises from 0.131 to 0.507.

Compared with SK-LU-1, NCI-H838 is lower in relative viability: 0.239 for the first, 0.204 for the second.

First: HCC-366
Second: NCI-H2342
The relative viability of the first is lower: 0.0603 for the first, 0.77 for the second.

Compared with ChaGo-K-1, SW 900 is lower in relative viability: 0.718 for the first, 0.154 for the second.

Going from NCI-H1648 to HCC-78, the relative viability rises from 0.545 to 0.782.

With NCI-H2170 the relative viability was 0.897.

Same assay, conditions: first compound 4 µM

Compared with NCI-H522, NCI-H727 is lower in relative viability: 0.454 for the first, 0.394 for the second.

Compared with NCI-H1650, NCI-H1993 is higher in relative viability: 0.254 for the first, 0.401 for the second.

Going from SK-LU-1 to NCI-H838, the relative viability falls from 0.269 to 0.166.

Going from HCC-366 to NCI-H2342, the relative viability rises from 0.0454 to 0.565.

Going from ChaGo-K-1 to SW 900, the relative viability falls from 0.233 to 0.212.

For NCI-H1648, the relative viability was 0.271.
